Source: ChEMBL document CHEMBL3507680, “University of Dundee, Gates Library screen for HepG2 cell viability”

Experiment: Human HepG2 cell viability assay in 384 well format
Type: toxicity, cell-based
Set-up: dose 125 nL, time 70.5 hour; cytotoxicity at 70.5 h: concentration not given beside the values
Details: HepG2 cells, read-out: Inhibition

Compound | cytotoxicity at 70.5 h [%]
O=C(c1ccnnc1)N1C[C@@H]2OCCN(CCN3CCCC3)[C@@H]2C1 | 4.4
Cn1ccnc1CNC(=O)N(CCCO)C1CCCc2ccccc21 (configuration not stated) | 21.5
Cc1cc(C(O)CCNC(=O)c2ccc(Cl)s2)c(C)o1 (configuration not stated) | -8.23
Cc1ccc(C(=O)NCCCNS(C)(=O)=O)cc1-n1cccc1 | -4.62
CNC(=O)N1CC[C@H]2N(C)CC[C@@]2(C(=O)Nc2ccccc2)CC1 | -4.01
NC(=O)COc1ccc(CNC(=O)CN2CCc3ccccc32)cc1 | 0.272
Cc1cc(OC(F)F)c(C(=O)N2CCC(CN(C)C)CC2)s1 | -5.68
COc1ccc(-c2cnc(N(C)C)nc2C2CN(C(C)=O)CCO2)cc1 (configuration not stated) | -11.5
O=C(NCc1ccccn1)NCC(O)c1ccccc1C(F)(F)F (configuration not stated) | -5.77
Cc1ccc(CN2CCCn3nnc(COCCN(C)C)c3C2)s1 | -16
c1nc(CCNc2nc(C3CC3)nc3c2CCNCC3)c[nH]1 | -10.1
N#Cc1cccc(NC2CC(=O)N(CCc3ccc(F)cc3)C2)n1 (configuration not stated) | 28.1
COc1cc(NC(=O)c2cc(Cl)ccc2F)c(C(=O)N(C)C)cc1OC | -15.4
O=C(NCC(O)c1ccoc1)Nc1c(F)cccc1F (configuration not stated) | -9.03
CC(c1nc(C(C)(C)C)no1)N1CCN(C(=O)CN2CCOCC2)CC1 (configuration not stated) | -6.71
Cc1cc(C(=O)N2C[C@@H]3COC[C@]3(c3nnc(C)o3)C2)on1 | -11.2
Cc1ccc(C(=O)NC(CN2CCCC2=O)c2ccccc2)cn1 (configuration not stated) | 2.77
Cc1ccc(CNC2CCCN(Cc3noc(C4CC4)n3)C2)s1 (configuration not stated) | 28.4
COc1cc2[nH]c(=O)c(CN3CCCC3C)cc2c(OC)c1OC (configuration not stated) | -6.4
O=C1COc2cc(OC[C@@H]3CCCN4CCCC[C@H]34)ccc21 | 14.3
CN(Cc1cc2cc(F)ccc2[nH]1)c1cc(C2CCCNC2)ncn1 (configuration not stated) | -0.169
CN(C)c1cnn(CC(=O)N2Cc3ccccc3C2)c(=O)c1 | 22
CCCS(=O)(=O)N1CCO[C@H]2[C@H](OCc3ccccn3)CC[C@@H]21 | -1.48

Compound | cytotoxicity at 70.5 h [%]
COc1ccc(CN(C)[C@@H]2CN(C(=O)c3ccccc3)C[C@H]2O)cc1 | -2.29
CCOc1ccc(CNC(=O)N2CCCC(CO)C2)cc1F (configuration not stated) | 0.25
Cc1ccoc1-c1nnc(CNC2CCCN(c3cccnn3)C2)o1 (configuration not stated) | 12.6
CCOc1cc(C(=O)N2CCCC(n3nc(C)nc3C)C2)ccn1 (configuration not stated) | -3.74
Cc1cnn(CC2CCCCN2CCCS(C)(=O)=O)c1 (configuration not stated) | -2.88
Cc1ccc2c(CC(=O)N3C[C@@H](O)[C@H](N(C)C)C3)coc2c1 | -5.65
Cc1ccc(C(=O)Nc2ccc(N3CCCC3)cn2)cc1F | 19.7
Cn1ccnc1COc1ccc(CSc2nnnn2C2CC2)cc1 | 6.53
COCCNC(=O)[C@H]1C[C@@H]2CCN(c3ccccc3)C[C@H]2O1 | -9.93
CC(Cc1ccco1)NC(=O)Nc1ccc(N2CCOCC2)nc1 (configuration not stated) | -4.87
CCN(C)C(=O)c1ccc(N(C)Cc2cc(-c3ccncc3)no2)nc1 | -2.26
CCc1ccsc1C(=O)N1CCN(C(=O)c2ccc(C)o2)CC1 | -5.92
O=C(NCCn1ccnc1)N1CCN(Cc2cccnc2)CC1 | -5.29
O=C(NCC1CCOC1)c1cc(-c2cccc(Cl)c2)on1 (configuration not stated) | -5.03
CC(C)Sc1ncccc1C(=O)NCc1ccc(O)cc1 | -2.85
CCN(CC)CCCNC(=O)Nc1c(C)cccc1C(C)C | -4.07
CCN1CCCC(O)(CN(C)Cc2ccccc2F)C1 (configuration not stated) | -9.61
O=S(=O)(C1CC1)N1CCc2ncc(Cn3cccn3)n2CC1 | -1.43
CCc1csc(NC(=O)Nc2c(C)n[nH]c2C)n1 | -4.31
CCC(=O)N1CCC(c2nnc(Cn3cncn3)n2C2CC2)CC1 | 6.31
CCOc1cc(CN(C)CC(=O)O)ccc1OC(F)F | 6.63
O=C(NC1CCCC1)[C@@H]1C[C@@H]2CCN(Cc3ccoc3)C[C@H]2O1 | -10
CCN(CC)S(=O)(=O)NC1CCCc2nc(-c3ccccc3)ncc21 (configuration not stated) | -7.72

Compound | cytotoxicity at 70.5 h [%]
COc1ccccc1CC(=O)N1CCCC(c2nccn2CC(N)=O)C1 (configuration not stated) | 23.1
CNC(=O)COC1COC2(CCN(Cc3cccnc3OC)CC2)C1 (configuration not stated) | -8.67
CC(NC(=O)NCCn1ccnc1)c1ccc2c(c1)CCC(=O)N2 (configuration not stated) | 13.7
Cc1cc(CNC(=O)NCCOc2ccc(F)c(F)c2)on1 | -6.89
CN1CC(=O)N(c2ccccc2)CC12CCN(S(C)(=O)=O)C2 (configuration not stated) | 20.4
Clc1ccc(C2(NCc3noc(C4CC4)n3)CCC2)cc1 | -5.74
Cc1ccc(N2CC[C@H](OCC3CC3)[C@@H]2Cc2cccnc2)nn1 | 1.2
CCc1nnsc1C(=O)N1CCCC1c1c(C)nn(C)c1OC (configuration not stated) | 13.9
CCN1CCC2(CC1)C(=O)Nc1ccc(C(=O)NC)cc12 | 4.51
CC1CCCCN1C1CN(c2ccnc(C(=O)NCc3ccco3)c2)C1 (configuration not stated) | -15.4
CC(C)CN1CCC(C(=O)NCCNC(=O)c2ccoc2)CC1 | -1.22
CCC(=O)N1CCC2(CC1)CC(N1CCOCC1)c1cc(C)ccc12 (configuration not stated) | -13.5
CSc1nc(C)cc(N2CCC(c3ncc[nH]3)CC2)n1 | -2.3
O=C(NCc1cccnc1)N1CCc2ncnc(NC3CC3)c2CC1 | 11.7
CNS(=O)(=O)c1cc(C(=O)NC2COc3ccccc32)cc(C)c1C (configuration not stated) | -13.5
CS(=O)(=O)NCc1cccc(COC2CCCCC2)c1 | -3.13
CCC(C)N(Cc1cccnc1)C(=O)c1ccc(NS(=O)(=O)CC)cc1 (configuration not stated) | -1.92
Cc1ccc(N2Cc3c(CN(C)C)nn(C)c3C2)nn1 | -14.2
CC1(C)CC1(C(=O)N1CC(c2cccnc2)C1)c1ccccc1F (configuration not stated) | -7.64
CN(Cc1cc(Br)cn1C)C(=O)Cc1cccc(O)c1 | -3.37
O=C1CC(c2cccc(O)c2)c2sc(C(=O)O)c(-c3ccccc3)c2N1 (configuration not stated) | 26.4
COc1ccccc1C1(CNc2nnc(C)c(C)c2C#N)CCOCC1 | -5.67
O=S(=O)(c1ccccc1)N1CCN(CCn2ccnc2)CC1 | 1.34

Compound | cytotoxicity at 70.5 h [%]
CC(C)(C)OC(=O)CNC(=O)CCc1nnc(-c2ccsc2)o1 | 0.905
Cc1cnn(C2CN(c3nc(C)cc(N(C)C)n3)C2)c1 | 0.987
CCC(=O)N1CCC(Oc2ccc(C(=O)NCCN(C)C)cc2Cl)CC1 | 7.41
COc1ccc(C(=O)N2C[C@@H](C)[C@@](C)(O)C2)cc1N1CCOCC1 | 2.73
CCN(C)c1ncnc2c1CCN(C(=O)N1CCCC1)CC2 | -12.4
c1cc(COC[C@@]23CCC[C@@H]2CN(C2CCOCC2)C3)ccn1 | -2.91
COc1ccc([C@@H]2CN(C(=O)CS(C)(=O)=O)C[C@H]2NC(C)=O)cc1 | -2.94
O=C(CN1CCCC(Cn2cncn2)C1)NCc1ccco1 (configuration not stated) | -15.8
Cc1cc(-c2cnc(N3CCCCCC3)nc2-c2cccnc2C)on1 | -12.8
COc1ccc(C(=O)N2CCCC(n3cc(C)cn3)C2)c(F)c1 (configuration not stated) | -3.25
O=S(=O)(NCC1(c2cccs2)CCOCC1)c1ccc2c(c1)OCCO2 | 12
CC(=O)N1CCC(C(=O)Nc2nc(C3CC3)cs2)CC1 | -4.64
CC(c1cccnc1)N(C)C(=O)NCCOc1ccc(C#N)cc1 (configuration not stated) | -11.1
CCCNC(=O)COc1cc(C)c2c(C)nn(-c3ccc(C)cc3)c2n1 | -2.23
c1ccc([C@@H]2CN(Cc3ccncc3)C[C@H]2c2cc[nH]n2)cc1 | -1.08
O=C(NCc1ccncc1)C1CN(c2nc3ccccc3s2)CCN1 (configuration not stated) | -0.512
CC(C)N(C)C(=O)C1CCC2(CCNCC2)O1 (configuration not stated) | 5.71
CC1CCN(C(=O)C(C)Oc2ccc3c(c2)OCO3)CC1 (configuration not stated) | 8.31
COCCn1cnc2ccc(NC(=O)CCCn3cccn3)cc2c1=O | -7.81
O=C1CC(c2ccc(F)c(F)c2)c2snc(C(=O)O)c2N1 (configuration not stated) | 8.54
CC(C)Oc1cc(N2C[C@H](C3CC3)[C@@H](N)C2)nc(N)n1 | -25.3
Cc1noc(C)c1CN1C[C@@H]2CC(F)(F)C[C@@H]2C1 | -2.12
CC(C)N(C)CC(=O)Nc1nccn1Cc1ccccc1Cl | -2.07

Compound | cytotoxicity at 70.5 h [%]
CC(C)c1ccc(OCCNC(=O)c2ccoc2)cc1 | 23.9
Cc1cnn(C2CCCN(C(=O)c3ccc(-n4ccnc4)cc3)C2)c1 (configuration not stated) | -17.4
Cc1ccc(N2CC3(COCCN(Cc4nccs4)C3)OCC2=O)s1 (configuration not stated) | -10.7
Cc1ccc(N2CCCN(C(=O)CC3C=CCC3)CC2)nn1 (configuration not stated) | -4.92
Cc1cc(S(=O)(=O)NCC2CNCCOC2)c(C)cc1Cl (configuration not stated) | 1.99
CC(C)c1nccc(CN(C)Cc2cnn(-c3ccccc3)c2)n1 | 26.7
CNC(=O)c1ccc(CN2CCN(C3=NCC(C)(C)S3)CC2)cc1 | 17.7
Cc1cc(F)ccc1C(=O)N1CCN(C)C2(CCC(=O)N(C)CC2)C1 (configuration not stated) | -9.21
CCN1CCCC1CNCc1cc2cc(OC)ccc2[nH]c1=O (configuration not stated) | -0.0295
CCOc1cc(F)ccc1NC(=O)N(C)Cc1cnn(C)c1 | -5.78
CC(C)CCN1CCN(C(=O)c2c[nH]nn2)CC1 | 14
CC(NC(=O)Nc1cc(F)ccc1N1CCCCC1)c1nncn1C (configuration not stated) | -4.36
O=S(=O)(C1CC1)N1CCC2(CCN(Cc3nccs3)CC2)CC1 | -2.17
COc1cccc(C(CO)NC(=O)Cc2ccc(F)c(Br)c2)c1 (configuration not stated) | -3.64
COc1c(C)cnc(CN(C)C2CCN(C3CCOCC3)CC2)c1C | -0.744
O=C(N1CCOCC1)N1CCC2(CC1)CN(c1ccccn1)CCO2 | -6.33
CCc1ccc(C(=O)N2CCCC(n3cncn3)C2)o1 (configuration not stated) | -2.71
COc1ccc(N2CCC(N(C)C(=O)C(C)SC)CC2)cc1 (configuration not stated) | -6.26
CN1CC(=O)N(c2cccc(F)c2)CC12CCN(Cc1cnn(C)c1)C2 (configuration not stated) | 4.08
COC(=O)c1cccc(CNC(=O)CC(F)(F)F)c1 | -5.17
